Assay results reported in ChEMBL document CHEMBL2010689 (J Med Chem, 2012).
The source made the active and inactive calls. The rule behind the calls is not given here.

What was measured:
[1] = Antitumor activity against human U251MG cells xenografted in athymic nude mouse assessed as partial tumor regression at 1 mg/kg, po bid; format: functional, U-251
[2] = Antitumor activity against human U251MG cells xenografted in athymic nude mouse assessed as complete tumor regression at 1 mg/kg, po bid; format: functional, U-251
[3] = Antitumor activity against human U251MG cells xenografted in athymic nude mouse assessed as complete tumor regression at 3 mg/kg, po bid; format: functional, U-251
[4] = Antitumor activity against human U251MG cells xenografted in athymic nude mouse assessed as complete tumor regression at 10 mg/kg, po bid; format: functional, U-251
[5] = Toxicity in dog purkinje fibres assessed as drug-induced QT interval change; format: tissue-based, Canis lupus familiaris, Purkinje fiber
[6] = Metabolic stability in mouse liver S9 fraction assessed as compound remaining after 2 hrs; format: ADME, subcellular; details: read-out: Stability
[7] = Cmax in Sprague-Dawley rat at 5 mg/kg, po; format: ADME, organism-based; design: dose 5 mg/kg, route oral; details: in vivo
[8] = Volume of distribution in cynomolgus monkey at 0.5 mg/kg, iv; format: ADME, organism-based, Macaca fascicularis; design: dose 0.5 mg/kg, route intravenous; details: in vivo
[9] = Cmax in cynomolgus monkey at 3 mg/kg, po; format: ADME, organism-based, Macaca fascicularis; design: dose 3 mg/kg, route oral; details: in vivo
[10] = Half life in cynomolgus monkey at 3 mg/kg, po; format: ADME, organism-based, Macaca fascicularis; design: dose 3 mg/kg, route oral; details: in vivo
Cytochrome P450 2D6 = Cytochrome P450 2D6 (Homo sapiens, UniProt P10635); assay: Inhibition of CYP2D6; format: ADME
[11] = Plasma protein binding in human; format: ADME, cell-free; details: read-out: PPB (converted)
[12] = target: Fibroblast growth factor receptor 1 (Homo sapiens, UniProt P11362); assay: Inhibition of human FGFR1 using ATP as substrate
[13] = target: Receptor-type tyrosine-protein kinase FLT3 (Homo sapiens, UniProt P36888); assay: Inhibition of human FLT3 using ATP as substrate
[14] = target: Macrophage colony-stimulating factor 1 receptor (Homo sapiens, UniProt P07333); assay: Inhibition of human FMS using ATP as substrate
Sequence of Macrophage colony-stimulating factor 1 receptor (P07333 whole entry): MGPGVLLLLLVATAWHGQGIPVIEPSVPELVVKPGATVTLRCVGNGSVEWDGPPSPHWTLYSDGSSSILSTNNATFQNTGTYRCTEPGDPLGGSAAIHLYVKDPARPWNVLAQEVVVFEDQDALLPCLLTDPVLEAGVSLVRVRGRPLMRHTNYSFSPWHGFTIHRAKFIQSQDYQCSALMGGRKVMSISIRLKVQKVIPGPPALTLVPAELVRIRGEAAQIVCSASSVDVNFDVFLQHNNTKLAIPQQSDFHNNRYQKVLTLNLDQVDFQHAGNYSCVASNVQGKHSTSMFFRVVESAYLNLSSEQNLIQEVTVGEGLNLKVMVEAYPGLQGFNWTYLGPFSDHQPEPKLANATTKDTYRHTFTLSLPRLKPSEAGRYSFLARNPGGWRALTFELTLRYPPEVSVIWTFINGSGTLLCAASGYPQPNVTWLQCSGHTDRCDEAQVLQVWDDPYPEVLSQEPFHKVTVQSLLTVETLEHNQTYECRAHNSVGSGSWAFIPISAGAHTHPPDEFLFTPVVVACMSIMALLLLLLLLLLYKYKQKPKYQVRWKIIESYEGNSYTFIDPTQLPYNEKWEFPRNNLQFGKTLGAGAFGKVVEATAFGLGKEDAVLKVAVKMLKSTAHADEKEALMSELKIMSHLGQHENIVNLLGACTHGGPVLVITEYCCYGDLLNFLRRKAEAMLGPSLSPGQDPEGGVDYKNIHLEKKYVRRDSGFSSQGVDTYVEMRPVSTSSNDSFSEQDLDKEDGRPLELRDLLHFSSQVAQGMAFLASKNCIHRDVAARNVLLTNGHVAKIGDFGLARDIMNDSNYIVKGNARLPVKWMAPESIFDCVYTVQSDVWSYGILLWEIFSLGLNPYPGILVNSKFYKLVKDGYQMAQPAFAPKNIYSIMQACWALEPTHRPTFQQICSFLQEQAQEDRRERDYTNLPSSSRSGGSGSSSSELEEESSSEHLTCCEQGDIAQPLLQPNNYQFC

[15] = target: High affinity nerve growth factor receptor (Homo sapiens, UniProt P04629); assay: Inhibition of human TRK-A using ATP as substrate
[16] = target: BDNF/NT-3 growth factors receptor (Homo sapiens, UniProt Q16620); assay: Inhibition of human TRK-B using ATP as substrate
[17] = Inhibition of CDK at 1 uM
[18] = target: Hepatocyte growth factor receptor (Homo sapiens) (UniProt P08581); assay: Inhibition of cMET at 1 uM
Sequence of Hepatocyte growth factor receptor (Homo sapiens) (P08581 whole entry): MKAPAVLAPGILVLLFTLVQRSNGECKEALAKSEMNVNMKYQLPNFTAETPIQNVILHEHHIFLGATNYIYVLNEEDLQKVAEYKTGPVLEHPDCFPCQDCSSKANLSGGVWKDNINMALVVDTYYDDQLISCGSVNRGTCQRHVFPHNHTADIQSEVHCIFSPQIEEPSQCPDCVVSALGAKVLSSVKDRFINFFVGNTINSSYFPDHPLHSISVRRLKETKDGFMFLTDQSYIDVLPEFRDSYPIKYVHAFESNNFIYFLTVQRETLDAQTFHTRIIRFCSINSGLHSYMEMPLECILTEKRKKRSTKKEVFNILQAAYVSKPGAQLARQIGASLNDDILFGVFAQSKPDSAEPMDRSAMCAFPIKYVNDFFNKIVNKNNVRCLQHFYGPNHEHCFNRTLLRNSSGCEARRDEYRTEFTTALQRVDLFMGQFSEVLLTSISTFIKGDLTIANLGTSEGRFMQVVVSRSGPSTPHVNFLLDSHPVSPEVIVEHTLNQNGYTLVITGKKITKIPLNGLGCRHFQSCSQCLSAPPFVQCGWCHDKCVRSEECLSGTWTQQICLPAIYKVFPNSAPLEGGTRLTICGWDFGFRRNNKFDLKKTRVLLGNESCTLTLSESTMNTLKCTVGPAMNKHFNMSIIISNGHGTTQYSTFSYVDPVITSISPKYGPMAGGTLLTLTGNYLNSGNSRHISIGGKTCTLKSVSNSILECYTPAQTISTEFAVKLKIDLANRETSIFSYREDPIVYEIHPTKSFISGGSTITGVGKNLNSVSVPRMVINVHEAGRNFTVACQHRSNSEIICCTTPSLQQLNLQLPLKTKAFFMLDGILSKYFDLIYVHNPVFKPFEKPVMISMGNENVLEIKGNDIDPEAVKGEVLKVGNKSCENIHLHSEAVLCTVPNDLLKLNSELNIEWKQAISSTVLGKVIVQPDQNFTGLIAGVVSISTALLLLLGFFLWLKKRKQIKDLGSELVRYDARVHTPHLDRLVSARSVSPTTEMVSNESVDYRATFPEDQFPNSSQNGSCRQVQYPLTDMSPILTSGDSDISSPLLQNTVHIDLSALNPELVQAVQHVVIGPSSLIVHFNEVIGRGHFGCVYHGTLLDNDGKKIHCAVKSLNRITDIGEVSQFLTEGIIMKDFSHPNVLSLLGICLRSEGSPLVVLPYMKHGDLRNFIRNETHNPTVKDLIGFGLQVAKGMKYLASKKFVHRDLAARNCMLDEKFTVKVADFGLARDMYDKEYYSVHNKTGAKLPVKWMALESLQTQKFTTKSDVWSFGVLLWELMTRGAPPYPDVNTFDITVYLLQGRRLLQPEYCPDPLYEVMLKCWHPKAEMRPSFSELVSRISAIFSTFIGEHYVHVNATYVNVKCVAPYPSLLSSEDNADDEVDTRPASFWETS

[19] = target: Epidermal growth factor receptor (Homo sapiens) (UniProt P00533); assay: Inhibition of EGFR at 1 uM
Sequence of Epidermal growth factor receptor (Homo sapiens) (P00533 whole entry): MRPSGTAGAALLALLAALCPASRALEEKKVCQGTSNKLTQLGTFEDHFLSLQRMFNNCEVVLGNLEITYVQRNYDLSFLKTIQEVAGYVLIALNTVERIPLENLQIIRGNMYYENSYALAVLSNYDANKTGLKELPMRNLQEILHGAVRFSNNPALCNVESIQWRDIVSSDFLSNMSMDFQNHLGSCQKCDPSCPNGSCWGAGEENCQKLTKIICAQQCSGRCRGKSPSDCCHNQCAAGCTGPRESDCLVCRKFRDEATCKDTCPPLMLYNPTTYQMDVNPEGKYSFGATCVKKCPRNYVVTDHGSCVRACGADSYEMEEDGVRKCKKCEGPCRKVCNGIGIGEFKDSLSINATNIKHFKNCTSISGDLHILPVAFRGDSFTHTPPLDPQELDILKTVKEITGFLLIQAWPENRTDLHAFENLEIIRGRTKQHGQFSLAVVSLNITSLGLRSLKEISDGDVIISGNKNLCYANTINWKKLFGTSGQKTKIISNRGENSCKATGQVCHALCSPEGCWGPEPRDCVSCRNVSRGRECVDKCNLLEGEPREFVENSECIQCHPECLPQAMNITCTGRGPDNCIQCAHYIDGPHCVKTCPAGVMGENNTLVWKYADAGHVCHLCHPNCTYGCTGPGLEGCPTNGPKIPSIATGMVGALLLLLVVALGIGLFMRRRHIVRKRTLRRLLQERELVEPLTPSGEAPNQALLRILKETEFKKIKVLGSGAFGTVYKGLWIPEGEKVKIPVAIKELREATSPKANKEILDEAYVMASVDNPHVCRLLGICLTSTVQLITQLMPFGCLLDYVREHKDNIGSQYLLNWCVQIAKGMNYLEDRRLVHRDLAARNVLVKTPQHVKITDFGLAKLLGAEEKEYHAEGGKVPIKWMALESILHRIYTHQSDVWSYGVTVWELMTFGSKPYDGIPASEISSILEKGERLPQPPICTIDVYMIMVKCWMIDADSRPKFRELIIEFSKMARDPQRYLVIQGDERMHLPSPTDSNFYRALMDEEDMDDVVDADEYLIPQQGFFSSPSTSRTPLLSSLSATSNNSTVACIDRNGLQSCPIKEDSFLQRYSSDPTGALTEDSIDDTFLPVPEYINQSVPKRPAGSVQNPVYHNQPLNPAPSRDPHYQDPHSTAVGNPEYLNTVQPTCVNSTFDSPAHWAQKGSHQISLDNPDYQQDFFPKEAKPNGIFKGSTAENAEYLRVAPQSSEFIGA

[20] = Inhibition of JNK at 1 uM
[21] = Inhibition of MKK at 1 uM
[22] = Inhibition of PDGFR at 1 uM
Adenosine receptor A2a = Adenosine receptor A2a (Homo sapiens, UniProt P29274); assay: Inhibition of adenosine A2A receptor at 10 uM
[23] = target: Type-1 angiotensin II receptor (Homo sapiens) (UniProt P30556); assay: Inhibition of angiotensin AT1 at 10 uM
Sequence of Type-1 angiotensin II receptor (Homo sapiens) (P30556 whole entry): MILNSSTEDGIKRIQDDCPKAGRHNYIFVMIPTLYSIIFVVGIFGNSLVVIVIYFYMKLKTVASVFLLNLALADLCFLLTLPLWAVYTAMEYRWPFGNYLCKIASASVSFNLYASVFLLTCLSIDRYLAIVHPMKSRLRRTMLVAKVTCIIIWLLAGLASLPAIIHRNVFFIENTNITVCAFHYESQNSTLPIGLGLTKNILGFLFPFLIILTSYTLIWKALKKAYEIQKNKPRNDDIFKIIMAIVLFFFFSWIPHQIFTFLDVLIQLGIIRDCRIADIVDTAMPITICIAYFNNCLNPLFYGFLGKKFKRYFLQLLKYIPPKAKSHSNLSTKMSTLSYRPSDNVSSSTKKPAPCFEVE

[24] = target: Substance-P receptor (Homo sapiens) (UniProt P25103); assay: Inhibition of neurokinin NK1 receptor at 10 uM
Sequence of Substance-P receptor (Homo sapiens) (P25103 whole entry): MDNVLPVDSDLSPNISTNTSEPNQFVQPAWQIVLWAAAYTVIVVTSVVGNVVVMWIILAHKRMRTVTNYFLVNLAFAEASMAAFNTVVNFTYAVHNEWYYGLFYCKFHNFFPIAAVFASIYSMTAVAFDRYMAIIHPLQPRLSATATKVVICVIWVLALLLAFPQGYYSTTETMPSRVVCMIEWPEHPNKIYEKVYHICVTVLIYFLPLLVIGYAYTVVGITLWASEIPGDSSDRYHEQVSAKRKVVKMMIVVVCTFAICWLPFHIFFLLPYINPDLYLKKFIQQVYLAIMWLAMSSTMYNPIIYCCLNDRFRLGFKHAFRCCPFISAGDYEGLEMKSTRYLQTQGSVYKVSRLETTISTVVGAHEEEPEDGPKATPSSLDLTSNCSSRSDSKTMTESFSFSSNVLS

[25] = target: Muscarinic acetylcholine receptor M4 (Homo sapiens, UniProt P08173); assay: Inhibition of muscarinic M4 receptor
Sequence of Muscarinic acetylcholine receptor M4 (P08173 whole entry): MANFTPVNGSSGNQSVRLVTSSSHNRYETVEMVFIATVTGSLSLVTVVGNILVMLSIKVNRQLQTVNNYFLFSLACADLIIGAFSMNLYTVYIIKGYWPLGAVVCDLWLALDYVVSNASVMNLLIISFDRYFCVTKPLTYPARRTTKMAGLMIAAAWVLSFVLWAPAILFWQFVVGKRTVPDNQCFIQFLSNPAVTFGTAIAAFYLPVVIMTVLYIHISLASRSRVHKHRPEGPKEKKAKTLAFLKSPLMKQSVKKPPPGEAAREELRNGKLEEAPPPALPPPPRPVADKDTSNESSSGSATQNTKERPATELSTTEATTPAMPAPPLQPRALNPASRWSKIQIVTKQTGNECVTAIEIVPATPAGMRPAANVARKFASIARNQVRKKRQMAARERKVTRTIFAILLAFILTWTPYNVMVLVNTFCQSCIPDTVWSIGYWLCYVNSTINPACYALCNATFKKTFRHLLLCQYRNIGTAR

HUVEC [26] = assay: Cytotoxicity against HUVEC; format: cell-based; details: human
Aorta = assay: Cytotoxicity against rat aortic rings; format: tissue-based
HUVEC [27] = assay: Antiangiogenic activity in HUVEC assessed as inhibition of VEGF-induced proliferation; format: functional, cell-based; details: Homo sapiens
[28] = Antiangiogenic activity in HMVEC assessed as inhibition of VEGF-induced proliferation; format: functional; details: Homo sapiens
HUVEC [29] = assay: Antiangiogenic activity in HUVEC assessed as inhibition of FGF-induced proliferation; format: functional, cell-based; details: Homo sapiens
HUVEC [30] = assay: Antiangiogenic activity in HUVEC assessed as inhibition of VEGF-induced migration; format: functional, cell-based; details: Homo sapiens
[31] = Antiangiogenic activity in HMVEC assessed as inhibition of VEGF-induced migration; format: functional; details: Homo sapiens
[32] = Antiangiogenic activity in BAEC assessed as inhibition of VEGF-induced migration; format: functional; details: Bos taurus
HUVEC [33] = assay: Antiangiogenic activity in HUVEC assessed as inhibition of VEGF-induced survival; format: functional, cell-based; details: Homo sapiens
[34] = Antiangiogenic activity in HMVEC assessed as inhibition of VEGF-induced survival; format: functional, Homo sapiens
[35] = Antiangiogenic activity in BAEC assessed as inhibition of VEGF-induced survival; format: functional, Bos taurus
[36] = Antiangiogenic activity in HMVEC assessed as inhibition of FGF-induced survival; format: functional, Homo sapiens
[37] = Antiangiogenic activity in BAEC assessed as inhibition of FGF-induced survival; format: functional, Bos taurus
[38] = Antitumor activity against human U251MG cells xenografted in athymic nude mouse assessed as tumor growth inhibition at 3 mg/kg, po bid measured on day 29 relative to control; format: functional; details: U-251, 696 h, read-out: GI
[39] = Antitumor activity against human U251MG cells xenografted in athymic nude mouse assessed as tumor growth inhibition at 10 mg/kg, po bid measured on day 29 relative to control; format: functional; details: U-251, 696 h, read-out: GI
[40] = Antitumor activity against human U251MG cells xenografted in athymic nude mouse assessed as tumor growth inhibition at 30 mg/kg, po bid measured on day 29 relative to control; format: functional; details: U-251, 696 h, read-out: GI
[41] = Cmax in athymic nude mouse plasma xenografted with human U251MG cells at 30 mg/kg, po; format: ADME, organism-based, U-251; design: dose 30 mg/kg, route oral
A-375 [42] = assay: Antitumor activity against human A375 cells xenografted in athymic nude mouse assessed as tumor growth inhibition at 0.3 mg/kg, po bid measured on day 29 relative to control; format: functional; details: A-375, 696 h, read-out: GI
A-375 [43] = assay: Antitumor activity against human A375 cells xenografted in athymic nude mouse assessed as tumor growth inhibition at 3 mg/kg, po bid measured on day 29 relative to control; format: functional; details: A-375, 696 h, read-out: GI
A-375 [44] = assay: Antitumor activity against human A375 cells xenografted in athymic nude mouse assessed as partial tumor regression at 1 mg/kg, po bid; format: functional
A-375 [45] = assay: Antitumor activity against human A375 cells xenografted in athymic nude mouse assessed as partial tumor regression at 3 mg/kg, po bid; format: functional
A-375 [46] = assay: Antitumor activity against human A375 cells xenografted in athymic nude mouse assessed as complete tumor regression at 10 mg/kg, po bid; format: functional
Mus musculus [47] = assay: Toxicity in athymic nude mouse bearing human A375 cells assessed as body weight change at 0.1 to 10 mg/kg, po; format: organism-based, A-375; design: dose 0.1-10 mg/kg, route oral; details: in vivo
Mus musculus [48] = assay: Toxicity in athymic nude mouse bearing human U251MG cells assessed as body weight change at 1 to 30 mg/kg, po; format: organism-based, U-251; design: dose 1-30 mg/kg, route oral; details: in vivo
Mus musculus [49] = assay: Toxicity in athymic nude mouse bearing human U251MG cells assessed as morbidity at 1 to 30 mg/kg, po; format: organism-based, U-251; design: dose 1-30 mg/kg, route oral; details: in vivo
P388 [50] = assay: Antitumor activity against mouse P388 cells xenografted in DBA/2 mouse assessed as mean survival at 30 mg/kg, po bid for 7 days followed by readministeration after 7 days; format: functional
P388 [51] = assay: Antitumor activity against mouse P388 cells xenografted in DBA/2 mouse assessed as mean survival at 30 mg/kg, po bid for 7 days followed by readministeration after 14 days; format: functional

With `CC(C)Cn1c2ccc(Nc3ncccn3)cc2c2c3c(c4c(c21)CCc1nn(C)cc1-4)C(=O)NC3` [CEP-11981] as the molecule, how does the Activity [1] read?
The Activity was 0%.

And the Activity [2]?
Its Activity is 0%.

And the Activity [3]?
Its Activity is 0%.

And the Activity [4]?
Its Activity is 0%.

And the Activity [5]?
Its Activity is “Non-toxic”.

And the remaining at 2 h [6]?
The remaining at 2 h was 65%.

And the Cmax [7]?
The Cmax was 1330 ng/mL.

And the Vd [8]?
Its Vd is 2.6 L/kg.

And the Cmax [9]?
The Cmax was 491 ng/mL.

What about the half-life [10] of the same molecule?
Its half-life is 2.4 h.

And the IC50 (Cytochrome P450 2D6)?
The IC50 was greater than 30000 nM.

And the fraction unbound [11]?
The fraction unbound was 0.05.

What about the IC50 [12] of the same molecule?
Its IC50 is 13 nM.

And the IC50 [13]?
The IC50 was 71 nM.

And the IC50 [14]?
The IC50 was 78 nM.

What about the IC50 [15] of the same molecule?
Its IC50 is 3 nM.

And the IC50 [16]?
Its IC50 is 5 nM.

And the inhibition [17]?
The inhibition was “Active”.

And the inhibition [18]?
The inhibition was “Active”.

And the inhibition [19]?
Its inhibition is “Active”.

What about the inhibition [20] of the same molecule?
Its inhibition is “Active”.

What about the inhibition [21] of the same molecule?
Its inhibition is “Active”.

What about the inhibition [22] of the same molecule?
The inhibition was “Active”.

And the inhibition (Adenosine receptor A2a)?
The inhibition was greater than 80%.

And the inhibition [23]?
Its inhibition is greater than 80%.

What about the inhibition [24] of the same molecule?
The inhibition was greater than 80%.

What about the Ki [25] of the same molecule?
Its Ki is 2900 nM.

What about the Activity (HUVEC [26]) of the same molecule?
The Activity was “Non-toxic”.

And the Activity (Aorta)?
The Activity was “Non-toxic”.

What about the EC50 (HUVEC [27]) of the same molecule?
The EC50 was 8 nM.

And the EC50 [28]?
Its EC50 is 8 nM.

And the EC50 (HUVEC [29])?
Its EC50 is 8 nM.

What about the EC50 (HUVEC [30]) of the same molecule?
Its EC50 is 8 nM.

What about the EC50 [31] of the same molecule?
The EC50 was 8 nM.

What about the EC50 [32] of the same molecule?
The EC50 was 8 nM.

And the EC50 (HUVEC [33])?
The EC50 was 8 nM.

What about the EC50 [34] of the same molecule?
The EC50 was 8 nM.

And the EC50 [35]?
Its EC50 is 8 nM.

And the EC50 [36]?
Its EC50 is 8 nM.

And the EC50 [37]?
Its EC50 is 8 nM.

And the inhibition in vivo at 3 mg/kg [38]?
The inhibition in vivo at 3 mg/kg was 61%.

What about the inhibition in vivo at 10 mg/kg [39] of the same molecule?
Its inhibition in vivo at 10 mg/kg is 75%.

What about the inhibition in vivo at 30 mg/kg [40] of the same molecule?
The inhibition in vivo at 30 mg/kg was 88%.

What about the Cmax [41] of the same molecule?
Its Cmax is 1200 ng/mL.

And the inhibition in vivo at 0.3 mg/kg (A-375 [42])?
Its inhibition in vivo at 0.3 mg/kg is 71%.

And the inhibition in vivo at 3 mg/kg (A-375 [43])?
The inhibition in vivo at 3 mg/kg was 90%.

What about the Activity (A-375 [44]) of the same molecule?
Its Activity is 10%.

And the Activity (A-375 [45])?
The Activity was 11%.

What about the Activity (A-375 [46]) of the same molecule?
Its Activity is 40%.

And the Activity (Mus musculus [47])?
The Activity was “Non-toxic”.

And the Activity (Mus musculus [48])?
The Activity was “Non-toxic”.

What about the Activity (Mus musculus [49]) of the same molecule?
Its Activity is “Non-toxic”.

And the MSD (P388 [50])?
The MSD was 25 days.

What about the MSD (P388 [51]) of the same molecule?
The MSD was 23 days.
